Measured values from ChEMBL document CHEMBL1139187, “Hybrid molecules containing benzo[4,5]imidazo[1,2-d][1,2,4]thiadiazole and alpha-bromoacryloyl moieties as potent apoptosis inducers on human myeloid leukaemia cells” (Bioorg Med Chem Lett, 2007).
Calls of active or inactive are those of the source. The rule behind the calls is not given here.

Columns and labels:
Assay type in all cases: functional, cell-based
HL-60 [1] = test: Induction of apoptosis in HL60 cells assessed as morphological changes at 3 uM after 4 hrs by phase contrast microscopy; settings: Homo sapiens
SK-MEL-1 = test: Antiproliferative activity against human SK-MEL1 cells by MTT assay
U-937 [2] = test: Antiproliferative activity against human U937 cells by MTT assay
HL-60 [3] = test: Induction of apoptosis in HL60 cells assessed as chromatin condensation at 3 uM after 4 hrs by fluorescence microscopy; settings: Homo sapiens
HL-60 [4] = test: Induction of apoptosis in HL60 cells assessed as cytochrome C release at 3 uM by Western blot; settings: Homo sapiens
U-937 [5] = test: Induction of apoptosis in U937 cells assessed as DNA fragmentation at 3 uM after 4 hrs by gel electrophoresis; settings: Homo sapiens
HL-60 [6] = test: Induction of apoptosis in HL60 cells assessed as DNA fragmentation at 3 uM after 4 hrs by gel electrophoresis; settings: Homo sapiens
HL-60 [7] = test: Induction of apoptosis in HL60 cells assessed as caspase 3 cleavage at 3 uM by Western blot; settings: Homo sapiens
U-937 [8] = test: Induction of apoptosis in U937 cells assessed as caspase 3 cleavage at 3 uM by Western blot; settings: Homo sapiens
HL-60 [9] = test: Antiproliferative activity against HL60 cells by MTT assay; settings: Homo sapiens
HL-60 [10] = test: Induction of apoptosis in HL60 cells assessed as PARP cleavage at 3 uM by Western blot; settings: Homo sapiens

Row | Structure (SMILES) | IC50 (SK-MEL-1) | IC50 (U-937 [2]) | IC50 (HL-60 [9]) | Activity (HL-60 [1]) | Activity (HL-60 [3]) | Activity (HL-60 [4]) | Activity (U-937 [5]) | Activity (HL-60 [6]) | Activity (HL-60 [7]) | Activity (U-937 [8]) | Activity (HL-60 [10])
1 | C=C(Br)C(=O)Nc1ccc2c(c1)cc(C(=O)NCCCCCCNc1nsc3nc4ccccc4n13)n2C | 4500 nM | 890 nM | 840 nM | Active | Active | Active | Active | Active | Active | Active | Active
2 | C=C(Br)C(=O)Nc1ccc2oc(C(=O)NCCCCCCNc3nsc4nc5ccccc5n34)cc2c1 | 8950 nM | 740 nM | 1720 nM | Active | Active | Active | Active | Active | Active | Active | Active
3 | C=C(Br)C(=O)Nc1ccc2sc(C(=O)NCCCCCCNc3nsc4nc5ccccc5n34)cc2c1 | 8040 nM | 910 nM | 1240 nM | Active | Active | Active | Active | Active | Active | Active | Active

Stronger by IC50 (SK-MEL-1), values ahead:

Row | IC50 (SK-MEL-1) | IC50 (U-937 [2]) | IC50 (HL-60 [9]) | Structure (SMILES) | Activity (HL-60 [1]) | Activity (HL-60 [3]) | Activity (HL-60 [4]) | Activity (U-937 [5]) | Activity (HL-60 [6]) | Activity (HL-60 [7]) | Activity (U-937 [8]) | Activity (HL-60 [10])
4 | 2090 nM | 240 nM | 290 nM | C=C(Br)C(=O)Nc1ccc2[nH]c(C(=O)NCCCNc3nsc4nc5ccccc5n34)cc2c1 | Active | Active | Active | Active | Active | Active | Active | Active
5 | 3020 nM | 400 nM | 550 nM | C=C(Br)C(=O)Nc1ccc2[nH]c(C(=O)NCCCCCCNc3nsc4nc5ccccc5n34)cc2c1 | Active | Active | Active | Active | Active | Active | Active | Active
